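Where inhibition never reached the appropriate level, the endpoint shown equals the highest concentration tested. Otherwise, values were interpolated linearly from a five-concentration, 48-hour dose response in 96-well plates. TGI: total growth inhibition.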
How the values were obtained:
Experiment in all cases: growth of human tumour cells (NCI), 48 h
[1] = tested on: HT29 colon
[2] = tested on: IGROV1 ovarian
[3] = tested on: 786-0 renal
[4] = tested on: HCT-116 colon
[5] = tested on: T-47D breast
[6] = tested on: NCI-H226 lung
[7] = tested on: SF-295 CNS
[8] = tested on: NCI-H460 lung
[9] = tested on: HS 578T breast
[10] = tested on: MOLT-4 leukemia

SMILES	TGI [1] [µM]	TGI [2] [µM]	TGI [3] [µM]	TGI [4] [µM]	TGI [5] [µM]	TGI [6] [µM]	TGI [7] [µM]	TGI [8] [µM]	TGI [9] [µM]	TGI [10] [µM]
CCc1nnc2sc(-c3ccc(-c4ccccc4[N+](=O)[O-])o3)nn12	> 100	> 100	> 100	> 100	> 100	44	> 100	> 100	> 100	62.8
COc1cccc(C2c3cc4c(cc3OC(NNS(=O)(=O)c3ccc(C)cc3)C2C)OCO4)c1O (stereo not given)	47.1	> 100	> 100	30.1	> 100	> 100	94.6	82	41.6	52.1
CCCNC(=O)c1cc(OC)c(OC)cc1NC(=O)C12CC3CC(CC(C3)C1)C2	32.2	53.3	30.6	30.4	40.4	55	35.9	43.1	51.5	> 100
CC(C)=CC(=O)c1[nH]c2ccccc2c1CC(=O)NCCc1cnc[nH]1	> 100	> 100	> 100	> 100	> 100	> 100	> 100	> 100	> 100	> 100
O=c1[nH]nc(-c2cccc([N+](=O)[O-])c2)[nH]1	> 100	> 100	> 100	> 100	> 100	> 100	> 100	> 100	> 100	> 100
CCOC(=O)c1c(NS(=O)(=O)c2ccccc2)sc2c1CCCC2	> 100	> 100	> 100	> 100	> 100	> 100	> 100	> 100	> 100	> 100
CCC(CCCC[C@H]1CC[C@@H]2CC(=O)C[C@H]12)OC (stereo not given in full)	> 100	> 100	> 100	> 100	> 100	> 100	> 100	> 100	> 100	> 100
CC(C)C1OC(=O)C(Cc2ccccc2)N(C)C(=O)C(C(C)C)OC(=O)C(Cc2ccccc2)N(C)C(=O)C(C(C)C)OC(=O)C(Cc2ccccc2)N(C)C1=O (stereo not given)	2.07	2.43	2.5	2.36	3.25	2.72	1.79	2.44	4.9	2.33
O=[N+]([O-])c1ccc(CSC2=C(c3ccc(Cl)cc3)S/C(=C3\SC(SCc4ccc([N+](=O)[O-])cc4)=C(c4ccc(Cl)cc4)S3)S2)cc1	> 100	> 100	> 100	> 100	> 100	> 100	> 100	> 100	> 100	> 100
O=C1OCOC2(CCCC2)C1c1ccccc1 (stereo not given)	> 100	> 100	> 100	> 100	> 100	> 100	> 100	> 100	> 100	> 100
CN1N=C(c2ccncc2)OC1c1ccc(C(F)(F)F)cc1 (stereo not given)	> 100	> 100	> 100	> 100	> 100	> 100	> 100	> 100	> 100	> 100
O=C(O)c1ccccc1Sc1ccc(C=C2NC(=S)N(c3ccccc3)C2=O)s1	> 100	> 100	35.8	> 100	> 100	> 100	> 100	> 100	> 100	> 100
Clc1ccc(Cc2nc3cc(Cl)c(Cl)cc3n2CC2CCCN3CCCCC23)cc1 (stereo not given)	13.1	21	23.5	21.8	64.6	38	29.2	23.2	26.5	> 100
CC[C@@]1(O)C(=O)OCc2c1cc1n(c2=O)Cc2c-1nc1ccc(N)cc1c2CC[Si](C)(C)C	11.6	0.469	< 0.0276	2.01	20.6	< 0.01	< 0.0417	< 0.013	27.3	< 0.01
NS(=O)(=O)c1ccc(Nc2c3ccccc3nc3c(C(=O)NC(CO)(CO)CO)cccc23)cc1	0.45	0.506	0.0514	0.327	> 1	0.315	> 1	0.248	0.44	0.195
CNC(=O)OC1/C(C)=C\C(C)C(O)C(OC)CC(C)CC2=C(OC)C(=O)C=C(C2=O)N(C)C(=O)/C(C)=C/C=C\C1OC (stereo not given)	17	24.6	18.2	21.1	6.14	36.7	46.5	39.7	15.3	3.74
O=C1c2ccccc2CC12Cc1ccc3c(c1C2=O)CCCC3 (stereo not given)	> 100	> 100	> 100	> 100	9.59	> 100	> 100	> 100	48.3	12.5
C=CCN(C(C)=O)c1cc(OCc2ccccc2)c2c(c1)c(C)cn2S(=O)(=O)c1ccccc1	> 100	> 100	> 100	> 100	> 35	> 31.1	> 100	> 100	> 70.4	> 22
CCCCCCCC(=O)NC(C)(C)C(=O)NCC(=O)NC(CC(C)C)C(=O)NC(C)(C)C(=O)NCC(=O)NCC(=O)NC(CC(C)C)C(=O)NC(C)(C)C(=O)NCC(=O)NC(C(=O)NC(CO)CC(C)C)C(C)CC (stereo not given)	7.42	7.17	8.11	7.09	7.23	8.48	7.76	8.11	8.81	9.43
CCOC(=O)c1c(N2CCN(C)CC2)[nH]c(=O)c(C(c2c(Cl)cccc2Cl)c2c(O)c(C(=O)OCC)c(N3CCN(C)CC3)[nH]c2=O)c1O	39.1	39.2	87	> 100	45.8	52.6	63.3	77	75	62.2
O=C1N[C@@H]([C@H]2CC[C@H](Cl)CN2)C(=O)N[C@H]1[C@H]1CC[C@H](Cl)CN1	32.1	37.6	0.61	32.7	56.1	11.6	5.36	2.88	91.7	13.3
C/C(=C\COP(=O)(O)OP(=O)(O)O)CC/C=C(\C)CNc1c(F)c(F)c(F)c(F)c1F	> 100	> 100	> 100	> 100	> 100	> 100	> 100	> 100	> 100	> 100
CCOC(=O)c1cccc(N=NNc2cccc(C(=O)OCC)c2)c1	> 100	> 100	42.6	> 100	> 100	> 100	45.4	> 100	77.3	> 100
O=[N+]([O-])C(/C=C(\Cl)[N+](=O)[O-])=C(N1CCOCC1)N1CCOCC1	83.1	> 100	30.7	62	52.7	> 100	> 100	> 100	> 100	> 100
O=C1CC2(CCN(Cc3ccccc3)CC2)C(=O)N1N1CCCCC1	> 100	> 100	> 100	> 100	> 100	> 100	> 100	> 100	> 100	> 100
NC1=Nc2ncccc2C(=O)NN1	> 10	> 10	> 10	> 10	> 10	> 10	> 10	> 10	> 10	> 10

From PubChem BioAssay (NCI)
